For 20 molecules, ring closure, isolated yield and IC50 results are on record in patent US11814391B2, “Macrocyclic compounds for the treatment of medical disorders” (Achillion Pharmaceuticals, Inc., priority 2018, dated 2023).

The structures appear in SMILES notation. A value given as a limit tells only on which side of the number the result lay.

Test system in one series: not given
Assay: not given
As to conditions: from C=CCCC(=O)NCC12CC(C(=O)Nc3nc(C(F)(F)F)ccc3C)N(C(=O)Cn3nc(C(C)=O)c4cc(-c5cnc(C)nc5)cc(N(CC=C)C(=O)OCc5ccccc5)c43)C1C2; rcm bond; 17-membered ring; Grubbs II; toluene; 1.42 mM; 80.0 °C.
In turn, `CC(=O)c1nn2c3c(cc(-c4cnc(C)nc4)cc13)N(C(=O)OCc1ccccc1)CC=CCCC(=O)NCC13CC(C(=O)Nc4nc(C(F)(F)F)ccc4C)N(C(=O)C2)C1C3` (centres unmarked) returned a ring closure, isolated yield of 57.2%.

Still in this series, the particulars now being: from C=CCCC(=O)Nc1cc(-c2cnc(C)nc2)cc2c(C(C)=O)nn(CC(=O)N3C(C(=O)Nc4nc(C(F)(F)F)ccc4C)CC4(COCC=C)CC34)c12; rcm bond; 17-membered ring; Grubbs II; toluene; 1.35 mM; 80.0 °C.
Molecule `CC(=O)c1nn2c3c(cc(-c4cnc(C)nc4)cc13)NC(=O)CCC=CCOCC13CC(C(=O)Nc4nc(C(F)(F)F)ccc4C)N(C(=O)C2)C1C3` (centres unmarked) yielded a ring closure, isolated yield of 65.8%.

A further series deals with Human Factor D (Homo sapiens (Human), UniProt P00746). The series is described as follows: Human Factor D assay. It is filed as biochemical. As to conditions: Human Factor D 80 nM, substrate Z-L-Lys-SBzl, A405; read-out: IC50 (Stars). The protocol: The assay of Example 3 was used to determine the IC50's of the compounds. Other standard factor D inhibition assays are also available.
Sequence of Human Factor D (P00746 26-253): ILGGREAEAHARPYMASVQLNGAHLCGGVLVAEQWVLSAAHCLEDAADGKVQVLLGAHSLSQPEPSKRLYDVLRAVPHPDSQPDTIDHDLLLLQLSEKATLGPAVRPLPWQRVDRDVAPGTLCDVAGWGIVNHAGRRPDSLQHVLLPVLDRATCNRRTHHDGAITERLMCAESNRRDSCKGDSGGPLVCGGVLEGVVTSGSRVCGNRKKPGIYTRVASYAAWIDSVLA
Human Factor D (purified from human serum, Complement Technology, Inc.) at 80 nM final concentration is incubated with test compound at various concentrations for 5 min at room temperature in 50 mM Tris, 1M NaCl, pH 7.5. A synthetic substrate Z-L-Lys-SBzI and DTNB (Ellman's reagent) are added to final concentrations of 100 μM each. Absorbance at 405 nm (A405) is recorded at 30 second intervals for 30 min using a microplate spectrophotometer. IC50 values are calculated by nonlinear regression of complement Factor D reaction rates as a function of test compound concentration.
The IC50 is the concentration needed to halve the response being measured. For `CC(=O)c1nn2c3c(cc(-c4cnc(C)nc4)cc13)CNCC/C=C/COC[C@@]13C[C@@H](C(=O)Nc4nc(C(F)(F)F)ccc4C)N(C(=O)C2)[C@@H]1C3` [Compound 37, (4^1R,4^3S,4^5S,E)-1^3-acetyl-N-(3-methyl-6-(trifluoromethyl)pyridin-2-yl)-1^5-(2-methylpyrimidin-5-yl)-3-oxo-1^1H-6-oxa-4^2,12-diaza-1(1,7)-indazola-4(2,5)-bicyclo[3.1.0]hexanacyclotridecaphan-8-ene-4^3-carboxamide], the concentration for half-maximal inhibition (IC50) was less than 1 µM.
Still for that read-out and setting: in the case of `CC(=O)c1nn2c3c(cc(-c4cnc(C)nc4)cc13)CCCCCCCCCc1ccc(Br)nc1NC(=O)[C@H](C)N(C)C(=O)C2` [Compound 38, (S)-13-acetyl-3-bromo-7,8-dimethyl-15-(2-methylpyrimidin-5-yl)-5,7,8,17,18,19,20,21,22,23,24,25-dodecahydro-6H-pyrido[2′,3′:8,9][1,4,7]triazacycloicosino[19,20,1-hi]indazole-6,9(10H)-dione] it was greater than 10 µM.
Turning to `CC(=O)c1nn2c3c(cc(NCC4CCCCC4)cc13)CCCCCCC(=O)NC[C@@]13C[C@@H](C(=O)Nc4nc(C(F)(F)F)ccc4C)N(C(=O)C2)[C@@H]1C3` [Compound 39, (4^1R,4^3S,4^5R)-1^3-acetyl-1^5-((cyclohexylmethyl)amino)-N-(3-methyl-6-(trifluoromethyl)pyridin-2-yl)-3,7-dioxo-1^1H-4^2,6-diaza-1(1,7)-indazola-4(2,5)-bicyclo[3.1.0]hexanacyclotridecaphane-4^3-carboxamide], the IC50 is less than 1 µM.
`CC(=O)c1nn2c3c(cc(-c4cnc(C)nc4)cc13)CCCCCCCCO[C@@H]1CCN(C(=O)C2)[C@@H]1C(=O)NCc1cccc(Cl)c1F` [Compound 40, (4^2S,4^3R)-1^3-acetyl-N-(3-chloro-2-fluorobenzyl)-1^5-(2-methylpyrimidin-5-yl)-3-oxo-1^1H-5-oxa-1(1,7)-indazola-4(1,3)-pyrrolidinacyclotridecaphane-4^2-carboxamide]: the IC50 was less than 1 µM.
Take `CC(=O)c1nn2c3c(nc(C)cc13)C/C=C/CCCCCC(=O)NCc1ccc(Br)nc1NC(=O)[C@@H]1C[C@@]3(C)C[C@H]3N1C(=O)C2` [Compound 45, (20aS,21aR,22aR,E)-26-acetyl-17-bromo-2,21a-dimethyl-8,9,10,11,13,14,20a,21,21a,22,22a,24-dodecahydro-3,13,18,19,22b,24a,25-heptaazabenzo[15,16]cyclopropa[3′,4′]cyclopenta[1′,2′:19, 20]cyclodocosa[1,2,3-cd]indene-12,20,23(4H,7H,19H)-trione]: the IC50 was less than 1 µM.
On to `CC(=O)c1nn2c3c(cccc13)CC/C=C/CC(=O)NC[C@@]13C[C@@H](C(=O)Nc4nc(Br)ccc4C)N(C(=O)C2)[C@@H]1C3` [Compound 46, (41R,43S,45R,E)-13-acetyl-N-(6-bromo-3-methylpyridin-2-yl)-3,7-dioxo-11H-42,6-diaza-l(1,7)-indazola-4(2,5)-bicyclo[3.1.0]hexanacyclododecaphan-9-ene-43-carboxamide], for which the IC50 is less than 1 µM.
Turning to `CC(=O)c1nn2c3c(cccc13)CC/C=C/CCC(=O)NC[C@@]13C[C@@H](C(=O)Nc4nc(Br)ccc4C)N(C(=O)C2)[C@@H]1C3` [Compound 47, (41R,43S,45R,E)-13-acetyl-N-(6-bromo-3-methylpyridin-2-yl)-3,7-dioxo-11H-42,6-diaza-1(1,7)-indazola-4(2,5)-bicyclo[3.1.0]hexanacyclotridecaphan-10-ene-43-carboxamide], the IC50 is less than 1 µM.
Take `CC(=O)c1nn(CC(=O)N2[C@H]3C[C@]4(C[C@@H]24)Cn2cc(nn2)COCc2ccc(Br)nc2NC3=O)c2cnccc12` [Compound 48, (31R,33S,35R,Z)-32-(2-(3-acetyl-1H-pyrazolo[3,4-c]pyridin-1-yl)acetyl)-66-bromo-11H-8-oxa-32,5-diaza-6(2,3)-pyridina-1(1,4)-triazola-3(5,3)-bicyclo[3.1,0]hexanacyclononaphan-4-one]: the IC50 was less than 1 µM.
Turning to `CC(=O)c1nn2c3c(cc(-c4cnc(C)nc4)cc13)CCCCCCCCc1ccc(Br)nc1NC(=O)[C@H](C)N(C)C(=O)C2` [Compound 51, (S)-2-acetyl-16-bromo-20,21-dimethyl-4-(2-methylpyrimidin-5-yl)-6,7,8,9,10,11,12,13,20,21 - decahydropyrido[2′,3′:8,9][1,4,7]triazacyclononadecino [18,19,1-hi]indazole-19,22(18H,23H)-dione], the half-inhibitory concentration (IC50) was greater than 10 µM.
With `CC(=O)c1nn2c3c(cc(NCC4CCCCC4)cc13)CCCCCCC(=O)NCC13CC(C(=O)Nc4nc(C(F)(F)F)ccc4C)N(C(=O)C2)C1C3` [Compound 52, (41R,43S,45R)-13-acetyl-15-((cyclohexylmethyl)amino)-N-(3-methyl-6-(trifluoromethyl)pyridin-2-yl)-3,7-dioxo-11H-42,6-diaza-1(1,7)-indazola-4(2,5)-bicyclo[3.1.0]hexanacyclotridecaphane-43-carboxamide], the IC50 was less than 1 µM.
Still for that read-out and setting: in the case of `CC(=O)c1nn2c3c(cc(-c4cnc(C)nc4)cc13)CCCCCCCCCCCO[C@@H]1CCN(C(=O)C2)[C@@H]1C(=O)NCc1cccc(Cl)c1F` [Compound 54, (42S,43R)-13-acetyl-N-(3-chloro-2-fluorobenzyl)-15-(2-methylpyrimidin-5-yl)-3-oxo-11H-5-oxa-1(1,7)-indazola-4(1,3)-pyrrolidinacyclohexadecaphane-42-carboxamide] it was less than 1 µM.
Consider `CC(=O)c1nn2c3c(cc(NC4CCCC4)cc13)CCCCCCC(=O)NCC13CC(C(=O)Nc4nc(C(F)(F)F)ccc4C)N(C(=O)C2)C1C3` [Compound 55, (41R,43S,45R)-13-acetyl-15-(cyclopentylamino)-N-(3-methyl-6-(trifluoromethyl)pyridin-2-yl)-3,7-dioxo-11H-42,6-diaza-1(1,7)-indazola-4(2,5)-bicyclo[3.1.0]hexanacyclotridecaphane-43-carboxamide], for which the IC50 is less than 1 µM.
Take `CC(=O)c1nn2c3c(cc(-c4cnc(C)nc4)cc13)CCCCCCCCCC[C@@H](C(=O)Nc1nc(Br)ccc1C)N(C)C(=O)C2` [Compound 56, (S)-2-acetyl-N-(6-bromo-3-methylpyridin-2-yl)-17-methyl-4-(2-methylpyrimidin-5-yl)-18-oxo-6,7,8,9,10,11,12,13,14,15,16,17,18,19-tetradecahydro-[1,4]diazacycloheptadecino[16,17,1-hi]indazole-16-carboxamide]: the IC50 was greater than 10 µM.
For `CC(=O)c1nn2c3c(cc(NC(=O)C4CC4)cc13)CCCCCCC(=O)NCC13CC(C(=O)Nc4nc(C(F)(F)F)ccc4C)N(C(=O)C2)C1C3` [Compound 57, (41R,43S,45R)-13-acetyl-15-(cyclopropanecarboxamido)-N-(3-methyl-6-(trifluoromethyl)pyridin-2-yl)-3,7-dioxo-11H-42,6-diaza-1(1,7)-indazola-4(2,5)-bicyclo[3.1.0]hexanacyclotridecaphane-43-carboxamide], the IC50 was less than 1 µM.
Regarding `CC(=O)c1nn2c3c(cc(-c4cnc(C)nc4)cc13)NCCCCCC(=O)NCC13CC(C(=O)Nc4nc(C(F)(F)F)ccc4C)N(C(=O)C2)C1C3` [Compound 58, (41R,43S,45R)-13-acetyl-N-(3-methyl-6-(trifluoromethyl)pyridin-2-yl)-15-(2-methylpyrimidin-5-yl)-3,7-dioxo-11H-42,6,13-triaza-1(1,7)-indazola-4(2,5)-bicyclo[3.1.0]hexanacyclotridecaphane-43-carboxamide], the IC50 was less than 1 µM.
Still for that read-out and setting: for `CC(=O)c1nn2c3c(cc(-c4cnc(C)nc4)cc13)CCCCCC(C)(C)CNC[C@@]13C[C@@H](C(=O)Nc4nc(C(F)(F)F)ccc4C)N(C(=O)C2)[C@@H]1C3` [Compound 59, (41R,43S,45R)-13-acetyl-8,8-dimethyl-N-(3-methyl-6-(trifluoromethyl)pyridin-2-yl)-15-(2-methylpyrimidin-5-yl)-3-oxo-11H-42,6-diaza-1(1,7)-indazola-4(2,5)-bicyclo[3.1.0]hexanacyclotridecaphane-43-carboxamide] the value was less than 1 µM.
The same measure, in the same setting: in the case of `CC(=O)c1nn2c3c(cc(-c4cnc(C)nc4)cc13)NC(=O)CCCCCOCC13CC(C(=O)Nc4nc(C(F)(F)F)ccc4C)N(C(=O)C2)C1C3` [Compound 60, (41R,43S,45S)-13-acetyl-N-(3-methyl-6-(trifluoromethyl)pyridin-2-yl)-15-(2-methylpyrimidin-5-yl)-3,12-dioxo-11H-6-oxa-42,13-diaza-1(1,7)-indazola-4(2,5)-bicyclo[3.1.0]hexanacyclotridecaphane-43-carboxamide] it was less than 1 µM.
Still for that read-out and setting: for `CC(=O)c1nn2c3c(cc(-c4cnc(C)nc4)cc13)CCCCCC(C)(C)CNC[C@@]13C[C@@H](C(=O)NC4CC(C)(C)C4)N(C(=O)C2)[C@@H]1C3` [Compound 61, (41R,43S,45R)-13-acetyl-N-(3,3-dimethylcyclobutyl)-8,8-dimethyl-15-(2-methylpyrimidin-5-yl)-3-oxo-11H-42,6-diaza-1(1,7)-indazola-4(2,5)-bicyclo[3.1.0]hexanacyclotridecaphane-43-carboxamide] the value was less than 1 µM.
